pEC50: −log10 of the molar value. Values after ≈ are worked out from the molar mass of the structure shown. Active and inactive are the calls of the source. No cut-off for these calls is given here.
Key:
[1] = molecular target: Histone deacetylase; assay: Inhibition of HDAC in human HeLa cells assessed as histone H3 hyperacetylation; type: cell-based
[2] = test system: HCT-116; assay: Cytotoxicity against human HCT116 cells; type: functional, cell-based
[3] = (§1) Cytotoxicity against human […] cells; type: functional, cell-based
[4] = Aqueous solubility of the compound; type: physicochemical; conditions: buffer
[5] = molecular target: Cytochrome P450 3A4 (Homo sapiens, UniProt P08684); assay: Inhibition of CYP3A4; type: ADME
Cytochrome P450 3A4, sequence (P08684 whole entry): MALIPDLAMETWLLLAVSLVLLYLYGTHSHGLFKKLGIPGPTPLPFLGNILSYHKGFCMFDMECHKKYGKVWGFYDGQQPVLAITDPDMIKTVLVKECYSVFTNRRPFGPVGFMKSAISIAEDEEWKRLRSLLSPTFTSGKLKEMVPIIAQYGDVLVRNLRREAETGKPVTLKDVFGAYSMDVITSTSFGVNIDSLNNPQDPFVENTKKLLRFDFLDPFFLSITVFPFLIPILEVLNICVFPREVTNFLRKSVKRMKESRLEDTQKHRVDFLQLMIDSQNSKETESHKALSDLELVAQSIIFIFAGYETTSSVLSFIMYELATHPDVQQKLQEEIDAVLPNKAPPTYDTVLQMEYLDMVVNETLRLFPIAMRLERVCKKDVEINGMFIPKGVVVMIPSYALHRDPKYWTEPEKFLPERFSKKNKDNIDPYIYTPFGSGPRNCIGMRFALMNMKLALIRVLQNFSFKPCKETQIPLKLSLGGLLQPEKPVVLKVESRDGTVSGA

[6] = molecular target: Cytochrome P450 2D6 (Homo sapiens, UniProt P10635); assay: Inhibition of CYP2D6; type: ADME
Cytochrome P450 2D6, sequence (P10635 whole entry): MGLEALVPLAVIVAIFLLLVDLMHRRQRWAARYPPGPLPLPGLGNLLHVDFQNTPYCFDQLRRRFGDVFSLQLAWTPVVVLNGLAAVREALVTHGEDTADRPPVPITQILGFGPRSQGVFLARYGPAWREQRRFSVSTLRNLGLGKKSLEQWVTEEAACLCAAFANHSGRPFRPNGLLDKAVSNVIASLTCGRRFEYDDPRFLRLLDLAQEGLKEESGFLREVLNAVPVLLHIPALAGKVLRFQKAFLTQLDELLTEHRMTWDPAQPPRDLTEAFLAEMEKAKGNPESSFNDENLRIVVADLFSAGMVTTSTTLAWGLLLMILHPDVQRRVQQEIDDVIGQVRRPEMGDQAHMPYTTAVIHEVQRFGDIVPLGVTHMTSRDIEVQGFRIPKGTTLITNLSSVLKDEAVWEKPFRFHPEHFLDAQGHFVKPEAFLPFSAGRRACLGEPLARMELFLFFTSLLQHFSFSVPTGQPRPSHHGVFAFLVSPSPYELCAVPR

[7] = molecular target: Cytochrome P450 2C9 (Homo sapiens, UniProt P11712); assay: Inhibition of CYP2C9; type: ADME
Cytochrome P450 2C9, sequence (P11712 whole entry): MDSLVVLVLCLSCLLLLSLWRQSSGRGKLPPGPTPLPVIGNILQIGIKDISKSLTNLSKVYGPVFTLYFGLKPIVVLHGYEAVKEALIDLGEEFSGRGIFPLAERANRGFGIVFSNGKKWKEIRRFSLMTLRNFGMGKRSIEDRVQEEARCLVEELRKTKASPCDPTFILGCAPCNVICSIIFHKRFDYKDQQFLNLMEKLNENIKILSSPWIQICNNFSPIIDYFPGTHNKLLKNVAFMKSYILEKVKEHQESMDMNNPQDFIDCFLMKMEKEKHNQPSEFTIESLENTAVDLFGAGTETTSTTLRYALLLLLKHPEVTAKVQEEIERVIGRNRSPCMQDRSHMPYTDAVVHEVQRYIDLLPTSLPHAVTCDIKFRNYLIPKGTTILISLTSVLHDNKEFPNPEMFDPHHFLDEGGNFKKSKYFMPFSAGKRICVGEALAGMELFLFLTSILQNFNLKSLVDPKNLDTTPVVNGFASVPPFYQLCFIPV

[8] = molecular target: Cytochrome P450 2C19 (Homo sapiens, UniProt P33261); assay: Inhibition of CYP2C19; type: ADME
Cytochrome P450 2C19, sequence (P33261 whole entry): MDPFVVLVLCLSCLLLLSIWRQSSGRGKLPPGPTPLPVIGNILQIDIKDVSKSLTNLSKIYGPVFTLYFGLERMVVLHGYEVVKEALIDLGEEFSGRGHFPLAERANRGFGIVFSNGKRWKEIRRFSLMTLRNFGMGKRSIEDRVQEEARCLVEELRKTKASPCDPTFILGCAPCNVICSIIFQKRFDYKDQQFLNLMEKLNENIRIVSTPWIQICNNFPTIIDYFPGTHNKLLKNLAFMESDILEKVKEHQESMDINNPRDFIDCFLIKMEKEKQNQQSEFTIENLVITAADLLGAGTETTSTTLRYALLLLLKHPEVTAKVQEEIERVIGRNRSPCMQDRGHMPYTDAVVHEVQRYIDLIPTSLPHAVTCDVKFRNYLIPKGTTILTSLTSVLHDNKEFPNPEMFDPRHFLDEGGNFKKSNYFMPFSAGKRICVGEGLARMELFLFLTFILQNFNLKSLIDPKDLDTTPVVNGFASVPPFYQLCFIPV

[9] = molecular target: T1, Cytochrome P450 1A2 (Homo sapiens, UniProt P05177); assay: Inhibition of CYP1A2; type: ADME
T1 sequence (P05177 whole entry): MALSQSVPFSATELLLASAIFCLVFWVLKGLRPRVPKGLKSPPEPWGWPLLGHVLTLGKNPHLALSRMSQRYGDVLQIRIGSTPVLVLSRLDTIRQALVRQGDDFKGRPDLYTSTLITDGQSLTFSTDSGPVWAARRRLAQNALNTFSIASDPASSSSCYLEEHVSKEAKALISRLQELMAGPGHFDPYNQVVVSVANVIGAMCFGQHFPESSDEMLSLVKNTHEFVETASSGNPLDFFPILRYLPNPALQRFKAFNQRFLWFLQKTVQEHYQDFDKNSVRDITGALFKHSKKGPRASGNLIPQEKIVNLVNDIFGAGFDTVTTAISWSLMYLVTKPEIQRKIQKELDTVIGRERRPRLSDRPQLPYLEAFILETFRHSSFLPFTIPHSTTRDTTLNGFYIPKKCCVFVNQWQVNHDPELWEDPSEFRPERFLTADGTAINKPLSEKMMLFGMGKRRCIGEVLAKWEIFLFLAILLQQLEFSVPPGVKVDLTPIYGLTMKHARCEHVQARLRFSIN

[10] = molecular target: Voltage-gated inwardly rectifying potassium channel KCNH2 (Homo sapiens, UniProt Q12809); assay: Inhibition of human ERG by patch-clamp assay
Voltage-gated inwardly rectifying potassium channel KCNH2, sequence (Q12809 whole entry): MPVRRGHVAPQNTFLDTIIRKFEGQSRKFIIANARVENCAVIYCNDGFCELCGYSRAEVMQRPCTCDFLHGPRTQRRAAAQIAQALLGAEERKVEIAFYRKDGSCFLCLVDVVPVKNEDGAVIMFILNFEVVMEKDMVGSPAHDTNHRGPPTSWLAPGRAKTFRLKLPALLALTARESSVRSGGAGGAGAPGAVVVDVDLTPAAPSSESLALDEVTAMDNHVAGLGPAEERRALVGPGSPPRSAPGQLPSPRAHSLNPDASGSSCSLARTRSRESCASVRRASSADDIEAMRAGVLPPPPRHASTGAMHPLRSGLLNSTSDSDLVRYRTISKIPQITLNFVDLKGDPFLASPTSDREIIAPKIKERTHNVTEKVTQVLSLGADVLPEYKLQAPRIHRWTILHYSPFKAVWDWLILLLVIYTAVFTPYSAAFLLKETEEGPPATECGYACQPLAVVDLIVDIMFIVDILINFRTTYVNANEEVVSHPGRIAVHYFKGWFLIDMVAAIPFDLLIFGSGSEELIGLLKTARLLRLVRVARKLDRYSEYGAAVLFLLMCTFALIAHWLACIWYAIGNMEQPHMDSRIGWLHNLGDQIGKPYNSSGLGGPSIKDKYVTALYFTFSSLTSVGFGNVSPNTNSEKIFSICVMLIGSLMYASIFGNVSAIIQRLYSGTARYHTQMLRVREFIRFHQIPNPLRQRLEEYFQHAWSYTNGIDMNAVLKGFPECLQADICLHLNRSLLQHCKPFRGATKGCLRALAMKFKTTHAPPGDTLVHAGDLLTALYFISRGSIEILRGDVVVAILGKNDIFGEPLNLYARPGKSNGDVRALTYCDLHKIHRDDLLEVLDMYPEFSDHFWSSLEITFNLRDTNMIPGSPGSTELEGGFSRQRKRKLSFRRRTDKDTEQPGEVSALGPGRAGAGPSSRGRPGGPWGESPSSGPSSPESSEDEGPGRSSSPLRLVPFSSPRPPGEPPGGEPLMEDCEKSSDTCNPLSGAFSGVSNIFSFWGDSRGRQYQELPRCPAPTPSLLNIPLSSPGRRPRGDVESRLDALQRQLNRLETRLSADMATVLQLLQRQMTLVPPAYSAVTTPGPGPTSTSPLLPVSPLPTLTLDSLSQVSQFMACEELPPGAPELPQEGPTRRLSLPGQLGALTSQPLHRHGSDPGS

[11] = test system: Mus musculus; assay: Induction of histone H3 hyperacetylation in human HCT116 cells xenografted in nude mouse at 50 mg/kg, po by immunoblotting relative to control; type: functional, HCT-116
[12] = test system: HT-29; assay: Cytotoxicity against human HT-29 cells; type: functional, cell-based
[13] = test system: MDA-MB-435; assay: Cytotoxicity against human MDA-MB-435 cells; type: functional, cell-based
[14] = test system: NCI-H460; assay: Cytotoxicity against human H460 cells; type: functional, cell-based
[15] = test system: SK-OV-3; assay: Cytotoxicity against human SKOV3 cells; type: functional, cell-based
[16] = test system: PC-3; assay: Cytotoxicity against human PC3 cells; type: functional, cell-based
[17] = test system: 786-0; assay: Cytotoxicity against human 786-0 cells; type: functional, cell-based
[18] = test system: HL-60; assay: Cytotoxicity against human HL60 cells; type: functional, cell-based
[19] = Cytotoxicity against human MJ cells; type: functional, cell-based
[20] = test system: Mus musculus; assay: Induction of histone H3 hyperacetylation in human HCT116 cells xenografted in nude mouse at 42 mg/kg, po by immunoblotting relative to control; type: functional, HCT-116
[21] = test system: Mus musculus; assay: Induction of histone H3 hyperacetylation in human HCT116 cells xenografted in nude mouse at 42 mg/kg, iv by immunoblotting relative to control; type: functional, HCT-116
[22] = test system: HCT-116; assay: Antitumor activity against human HCT116 cells xenografted in nude mouse assessed as tumor growth inhibition at 42 mg/kg, po QOD for 14 days relative to control; type: functional; design: scale not given: the % may be the effect or the level left
[23] = test system: HCT-116; assay: Antitumor activity against human HCT116 cells xenografted in nude mouse assessed as tumor growth inhibition at 84 mg/kg, po QOD for 14 days relative to control; type: functional; design: scale not given: the % may be the effect or the level left
[24] = test system: Mus musculus; assay: Induction of histone H3 hyperacetylation in human HCT116 cells xenografted in nude mouse at 30 mg/kg, po after 4 hrs by immunoblotting relative to control; type: functional, organism-based; design: dose 30 mg/kg; conditions: HCT-116
[25] = test system: Mus musculus; assay: Induction of histone H3 hyperacetylation in human HCT116 cells xenografted in nude mouse at 30 mg/kg, po after 8 hrs by immunoblotting relative to control; type: functional, organism-based; design: dose 30 mg/kg; conditions: HCT-116
[26] = test system: U226; assay: as §1; type: functional, cell-based

In the case of `COc1ccc(S(=O)(=O)Nc2ccc(C(=O)CSC(C)=O)cn2)cc1`, the EC50 [1] was 29 nM and the pEC50 [2] was 6.27.

In the case of `CC(=O)SCC(=O)c1ccc(NS(=O)(=O)c2ccc3c(c2)COOC3)nc1`, the EC50 [1] was 38 nM, the pEC50 [2] was 5.92 and the pEC50 [3] was 5.70. For the same compound, the solubility [4] was 200 µg/mL (≈ 490 µM), the pEC50 [5] was under 4.30 and the pEC50 [6] was under 4.30. The pEC50 [7] was 5.00, the pEC50 [8] was under 4.30 and the pEC50 [9] was under 4.30. The pEC50 [10] was under 4.52 and the “fold change (FC)” value [11] was 5.

Work on `Br.CC(=O)SCC(=O)c1ccc(NS(=O)(=O)c2ccc(OCCCN(C)C)cc2)nc1` yielded a solubility [4] of 10000 µg/mL, a pEC50 [6] of under 4.30 and a pEC50 [7] of under 4.30. For the same compound, the pEC50 [8] was under 4.30, the pEC50 [9] was under 4.30 and the pEC50 [10] was under 4.52.

In the case of `CC(=O)SCC(=O)c1ccc(NS(=O)(=O)c2ccc(OCCCN3CCCCC3)cc2)nc1`, the EC50 [1] was 53 nM, the pEC50 [2] was 6.00 and the pEC50 [3] was 6.10.

With `CC(=O)SCC(=O)c1ccc(NS(=O)(=O)c2ccc(OC3CCN(C)CC3)cc2)nc1` the EC50 [1] was 44 nM, the pEC50 [2] was 6.74 and the pEC50 [3] was 6.52.

Work on `CC(=O)SCC(=O)c1ccc(NS(=O)(=O)c2ccc(OCc3ccccn3)cc2)nc1` yielded an EC50 [1] of 220 nM and a pEC50 [2] of 6.38.

Work on `COCCCOc1ccc(S(=O)(=O)Nc2ccc(C(=O)CSC(C)=O)cn2)cc1` yielded an EC50 [1] of 120 nM, a pEC50 [2] of 5.28 and a pEC50 [3] of 4.54.

For `CC(=O)SCC(=O)c1ccc(NS(=O)(=O)c2ccc(OCCCN(C)C)cc2)nc1` [listing 1 of 2 here], the EC50 [1] was 45 nM, the pEC50 [2] was 6.85 and the pEC50 [3] was 6.74. The pEC50 [12] was 6.00, the pEC50 [13] was 6.74 and the pEC50 [14] was 6.64. The pEC50 [15] was 6.12, the pEC50 [16] was 6.13 and the pEC50 [17] was 6.23. For the same compound, the pEC50 [18] was 6.41, the pEC50 [19] was 6.77 and the “fold change (FC)” value [20] was 9. The “fold change (FC)” value [21] was 12, the Activity [22] was 44% and the Activity [23] was 25%.

Compound `CC(=O)SCC(=O)c1ccc(NS(=O)(=O)c2ccc(OCCCN3CCOCC3)cc2)nc1` has an EC50 [1] of 67 nM, a pEC50 [2] of 6.48 and a pEC50 [3] of 4.72.

`CC(=O)SCC(=O)c1ccc(NS(=O)(=O)c2ccc(OCCCc3ccccn3)cc2)nc1` gave an EC50 [1] of 220 nM.

`COc1cccc(S(=O)(=O)Nc2ccc(C(=O)CSC(C)=O)cn2)c1` showed an EC50 [1] of 190 nM and a pEC50 [2] of 5.37.

In the case of `CC(=O)SCC(=O)c1ccc(NS(=O)(=O)c2ccc(OCCc3ccccn3)cc2)nc1`, the EC50 [1] was 190 nM, the pEC50 [2] was 6.12 and the pEC50 [3] was 5.02.

For `CC(=O)SCC(=O)c1ccc(NS(=O)(=O)c2ccc(OCCCO)cc2)nc1`, the EC50 [1] was 110 nM and the pEC50 [2] was 5.07.

With `CC(=O)SCC(=O)c1ccc(NS(=O)(=O)c2ccc(OCCCN(C)C)cc2)nc1` [listing 2 of 2 here] the Activity [24] was “Active” and the Activity [25] was “Active”.

For `CC(=O)SCC(=O)c1ccc(NS(=O)(=O)c2ccc(OC3CCCN(C)C3)cc2)nc1` (stereo not given), the EC50 [1] was 110 nM, the pEC50 [2] was 5.43 and the pEC50 [3] was 5.92.

In the case of `CC(=O)SCC(=O)c1ccc(NS(=O)(=O)c2ccc(OCCCN3CCCC3)cc2)nc1`, the EC50 [1] was 61 nM, the pEC50 [2] was 6.09 and the pEC50 [3] was 6.40.

Work on `CC(=O)SCC(=O)c1ccc(NS(=O)(=O)c2ccc(OCCCCN(C)C)cc2)nc1` yielded an EC50 [1] of 29 nM, a pEC50 [2] of 6.55 and a pEC50 [3] of 6.92.

For `CC(=O)SCC(=O)c1ccc(NS(=O)(=O)c2ccc(OCCN(C)C)cc2)nc1`, the EC50 [1] was 93 nM, the pEC50 [2] was 6.18 and the Activity [26] was “inactive”.

Source: ChEMBL document CHEMBL1152294, “Identification of KD5170: a novel mercaptoketone-based histone deacetylase inhibitor” (Bioorg Med Chem Lett, 2008)
